Laboratory results as given in PubChem BioAssay (NCI).
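Test compounds were applied to cells in 96-well plates for 48 hours at 5 doses. Abbreviation: GI50, concentration required for 50% inhibition of growth. TGI denotes the concentration required for complete inhibition of growth.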

Columns and labels:
Experiment in all cases: inhibition of tumour cell growth, NCI panel, 48 h
[1] = tested on: SF-539 CNS
[2] = tested on: HCT-15 colon
[3] = tested on: NCI-H522 lung
[4] = tested on: NCI-H23 lung
[5] = tested on: CCRF-CEM leukemia
[6] = tested on: NCI-H226 lung
[7] = tested on: OVCAR-8 ovarian
[8] = tested on: MALME-3M melanoma
[9] = tested on: DU-145 prostate
[10] = tested on: MDA-MB-231 breast

| SMILES | GI50 [1] | TGI [1] | GI50 [2] | TGI [2] | GI50 [3] | TGI [3] | GI50 [4] | TGI [4] | GI50 [5] | TGI [5] | GI50 [6] | TGI [6] | GI50 [7] | TGI [7] | GI50 [8] | TGI [8] | GI50 [9] | TGI [9] | GI50 [10] | TGI [10] |
| --- | --- | --- | --- | --- | --- | --- | --- | --- | --- | --- | --- | --- | --- | --- | --- | --- | --- | --- | --- | --- |
| CCCCCCNC(=O)Oc1ccc(/C(=C(\C)c2ccc(Cl)cc2)c2ccc(OCCN3CCCCC3)cc2)cc1 | 3.99 µM | 8.55 µM | 1.07 µM | 4.71 µM | 6.14 µM | 13 µM | 3.89 µM | 9.61 µM | 3.2 µM | 33.3 µM | 5.31 µM | 11.8 µM | 5.53 µM | 11.7 µM | 3.36 µM | 7.7 µM | 6.26 µM | 16.4 µM | 5.35 µM | 10.2 µM |
| OC(C#Cc1ccccc1)(c1ccccc1)c1ccccc1 |  | > 100 µM |  | > 100 µM |  | > 100 µM |  | > 100 µM |  | 35.3 µM |  | 87.3 µM |  | > 100 µM |  | 60.2 µM |  | > 100 µM |  | > 100 µM |
| Cc1cc(N(CCCNc2ccnc3cc(Cl)ccc23)Cc2ccco2)nc(N2CCN(C)CC2)n1 | 1.68 µM | 3.23 µM | 2.07 µM | 10.5 µM | 3.62 µM | 14.4 µM | 5.52 µM | 22.1 µM | 2.84 µM | 10.2 µM | 12.4 µM | 24.8 µM | 3.87 µM | 16.8 µM | 1.83 µM | 3.5 µM | 5.69 µM | 18.8 µM | 2.63 µM | 8.72 µM |
| O=[N+]([O-])c1ccc(N2CCOCC2)c2c1no[n+]2[O-] | 1.07 µM | 2.27 µM | 1.32 µM | 2.89 µM | 0.649 µM | 2.33 µM | 1.08 µM | 4.83 µM | 0.728 µM | 3.86 µM | 2.91 µM | 17.5 µM | 1.1 µM | 2.62 µM | 1.52 µM | 4.28 µM | 1.42 µM | 5.76 µM | 2.7 µM | 15.6 µM |
